The subject of assay [1] is Rho/M4NC-mouse I7 transmembrane II–VII chimeric receptor. The assay can be described thus: Ca2+ imaging, Rho/M4NC-mouse I7 TM II–VII chimeric receptor in HEK-293 cells. In kind it is cell-based. The note with it: 10 μM.
Assay [2] addresses T1, full-length rat I7 olfactory receptor fused to rhodopsin N-terminus (Rattus norvegicus, UniProt P23270).
T1 construct: expressed in transfected cells; host or cells: HEK-293 with Gα15,16
T1 sequence (P23270 1-327): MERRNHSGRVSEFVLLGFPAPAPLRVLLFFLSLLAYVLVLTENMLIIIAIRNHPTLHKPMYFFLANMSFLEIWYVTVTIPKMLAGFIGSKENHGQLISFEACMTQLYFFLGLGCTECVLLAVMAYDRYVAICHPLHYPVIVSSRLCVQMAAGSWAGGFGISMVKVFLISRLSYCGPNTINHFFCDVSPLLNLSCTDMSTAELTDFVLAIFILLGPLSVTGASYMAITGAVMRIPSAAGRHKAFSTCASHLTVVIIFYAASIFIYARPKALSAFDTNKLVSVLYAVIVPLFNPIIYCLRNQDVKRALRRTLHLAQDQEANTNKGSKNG
Description: Ca2+ imaging, HEK-293 cells expressing translocation domain (rhodopsin N-terminus) fused to full-length rat I7. In kind it is cell-based.

For assay [3], the system named is Rho/M4NC-β2 TM II–VII (TM II–VII region from the β2-adrenergic receptor in pCMV-Rho/M4NC). The assay can be described thus: Single-cell FURA-2 Ca2+ imaging, HEK-293 cells co-transfected with Rho/M4NC-β2 TM II–VII and Gα15,16. Format: cell-based, human. The note with it: bath application; cells co-transfected with Gα15,16. As to the method:
HEK-293 cells (obtained from the ATCC) were grown in DMEM supplemented with 10% fetal bovine serum, penicillin (100 U/ml), streptomycin (100 μg/ml) and L-glutamine (2 mM) in 5% CO2. […] After 5 to 7 hr incubation, the cells were washed once with PBS containing 0.5 mM EDTA and 10% DMSO, then with PBS before continuing growth in regular media for 40–50 hr.
Efficient screening of expressed olfactory receptors with a large number of ligands by functional analysis requires a robust and sensitive assay system. […] In this reporter system, (olfactory) receptor activation leads to the generation of an IP3-mediated increase in intracellular Ca^2+, which can be measured at the single-cell level with high sensitivity and good temporal resolution using the dye FURA-2 and radiofluorometric imaging.
A construct with the TM II–VII region from the β2-adrenergic receptor inserted in the pCMV-Rho/M4NC vector (Rho/M4NC-β2 TM II–VII) was co-transfected with Gα15,16 into HEK-293 cells. […] Images of fluorescent cells were obtained on a Zeiss 510 confocal microscope with excitation at 488 nm.
These transfected cells were then tested for their ability to functionally respond to ligand-receptor binding. The ligand, the adrenergic agonist isoproterenol, was “bath” applied to the transfected cells and single cell Ca^2+-imaging was performed. Cells were pre-loaded with the Ca^2+-sensitive fluorescent dye FURA-2 AM (Molecular Probes) by bathing in serum-free DMEM containing 4 μM of the membrane permeant chemical for 1 hr at 37° C., then washed with a standard bath solution (130 mM NaCl, 2 mM CaCl2, 5 mM KCl, 10 mM glucose, 10 mM Na.HEPES/pH 7.4 at room temperature). […] Acetylcholine was applied at the end of each experiment at 10 μM for 15–20 seconds. […] At 5-second intervals, the cells were sequentially illuminated for less than 100 ms, first at 340 nm and then at 380 nm. Fluorescence emission at 510 nm was monitored for each excitation wavelength via an intensified CCD camera. Averaged pixel intensities within 40 to 100 regions of interest, corresponding to 40 to 100 individual cells, were digitized and stored on a computer. Attofluor-Ratiovision software (Atto Instruments) was used to determine the Ca^2+-dependent fluorescence signal expressed as the F340/F380 ratio.

Assay [4] concerns the target T2, full-length rat I7 receptor, residue 206 valine/isoleucine substitution (Rattus norvegicus, UniProt P23270, V206I).
T2 construct: expressed in transfected cells; not repeated
T2 sequence (P23270 1-327 V206I): T1 sequence (P23270 1-327) with V206I
The assay can be described thus: Ca2+ imaging, full-length rat I7 receptor with valine/isoleucine substitution at residue 206. The note with it: heptanal vs octanal. Format: cell-based.

The test system of assay [5] is Rho/M4NC-ratI7 TM II–VII chimeric receptor. The assay can be described thus: Ca2+ imaging, HEK-293 cells co-expressing Rho/M4NC-ratI7 TM II–VII chimeric construct and Gα15,16. In kind it is cell-based, rat. The note with it: for relative Ca2+ response, octanal vs heptanal: identical experiments to mouse I7 chimera. As to the method:
HEK-293 cells (obtained from the ATCC) were grown in DMEM supplemented with 10% fetal bovine serum, penicillin (100 U/ml), streptomycin (100 μg/ml) and L-glutamine (2 mM) in 5% CO2. Before transfection, the cells were seeded onto poly-L-lysine-coated 10.5×35×0.17 mm glass coverslips (Bellco) placed in the 60 mm culture dishes. Calcium phosphate-mediated transfections were performed in a 60 mm dish with 3 to 4 μg of receptor construct DNA, 1 μg of pCIS Gα 15 and Gα16 expression vector (Offermanns (1995) supra). 2 μg of pBluescript carrier DNA, and 0.3 μg of pRSV-T antigen expression vector (Gorman (1990) DNA and Protein Eng. Tech. 2:3–9). After 5 to 7 hr incubation, the cells were washed once with PBS containing 0.5 mM EDTA and 10% DMSO, then with PBS before continuing growth in regular media for 40–50 hr.
Efficient screening of expressed olfactory receptors with a large number of ligands by functional analysis requires a robust and sensitive assay system. Although the established role of cAMP in olfactory signaling offers a biochemical approach involving measurement of cAMP production in response to odorant stimulation, an alternative, rapid assay is to co-express the cloned olfactory receptors with G protein Gα15,16 subunits (see, e.g., Offermanns (1995) J. Biol. Chem. 270:15175–15180), which can promiscuously couple 7-transmembrane domain receptors that normally signal through other second messengers to the PIP2 pathway. In this reporter system, (olfactory) receptor activation leads to the generation of an IP3-mediated increase in intracellular Ca^2+, which can be measured at the single-cell level with high sensitivity and good temporal resolution using the dye FURA-2 and radiofluorometric imaging. These attributes were able to compensate for the low transfection efficiency in transient expression systems that would hinder more traditional biochemical assays.
These transfected cells were then tested for their ability to functionally respond to ligand-receptor binding. The ligand, the adrenergic agonist isoproterenol, was “bath” applied to the transfected cells and single cell Ca^2+-imaging was performed. Cells were pre-loaded with the Ca^2+-sensitive fluorescent dye FURA-2 AM (Molecular Probes) by bathing in serum-free DMEM containing 4 μM of the membrane permeant chemical for 1 hr at 37° C., then washed with a standard bath solution (130 mM NaCl, 2 mM CaCl2, 5 mM KCl, 10 mM glucose, 10 mM Na.HEPES/pH 7.4 at room temperature). For each experiment, a glass coverslip with FURA-2 loaded HEK 293 cells was introduced into an open-topped, longitudinal microperfusion chamber (300 μl bath volume mounted on a Zeiss Axiovert 135 microscope equipped with an F Fluar 40×/1.30 oil-immersion lens. The cells were superfused with test solutions typically for 30 to 40 seconds (5 ml/application) and washed out with 5 ml of bath solution at the end of each application. Each test solution was freshly diluted and manually applied with a micropipette into the chamber. Because of this manual procedure, there could be several seconds of delay in actual application from electronic tick marks used to define the beginning of application in each graph. At the same time, the solution flow might not be completely laminar. In most cases, the onset of Ca2+ rise in response to a specific solution occurred within 15 seconds of the beginning of solution application, though longer delays were sometimes observed. Acetylcholine was applied at the end of each experiment at 10 μM for 15–20 seconds. Ratiometric Ca^2+ measurements were performed as described by Grynkiewicz (1985) 260:3440–3450, with modifications using the Zeiss/Attofluor-Ratiovision imaging system. At 5-second intervals, the cells were sequentially illuminated for less than 100 ms, first at 340 nm and then at 380 nm. Fluorescence emission at 510 nm was monitored for each excitation wavelength via an intensified CCD camera. […]

Assay [6] concerns the target T3, full-length mouse I7 receptor, residue 206 valine/isoleucine substitution (Mus musculus, UniProt Q9QWU6, I206V).
T3 construct: expressed in transfected cells; not repeated
T3 sequence (Q9QWU6 1-327 I206V): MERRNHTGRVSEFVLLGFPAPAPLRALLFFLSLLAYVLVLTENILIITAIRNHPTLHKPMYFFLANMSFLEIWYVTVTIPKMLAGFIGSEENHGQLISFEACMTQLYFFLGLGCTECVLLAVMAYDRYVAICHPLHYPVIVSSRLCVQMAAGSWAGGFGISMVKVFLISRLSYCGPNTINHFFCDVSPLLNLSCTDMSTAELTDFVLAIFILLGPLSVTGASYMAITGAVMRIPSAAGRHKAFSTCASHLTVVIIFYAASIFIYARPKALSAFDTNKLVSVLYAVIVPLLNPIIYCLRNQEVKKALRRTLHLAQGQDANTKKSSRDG
The assay can be described thus: Ca2+ imaging, full-length mouse I7 receptor with valine/isoleucine substitution at residue 206. In kind it is cell-based. The note with it: heptanal vs octanal.

Where a chain is given by its changes, count along the chain named.

As to `CCCCCCC=O` [heptanal], the “intracellular Ca2+ response” value in assay [1] is “responded only to heptanal”; in assay [2] (30 μM), “small response”; in assay [5] (10 μM), “not 10 μM”; in assay [5] (30 μM), “responded to 30 μM”. Further, the “intracellular Ca2+ response (FURA-2 F340/F380)” value in assay [3] is “no effect”. Also, the ligand preference result in assay [4] is “preferentially recognize heptanal”. Besides, the “relative Ca2+ response, octanal vs heptanal” value in assay [5] is reported as “responded better to octanal than to heptanal”.
Consider `CCCCCCCC=O` [octanal], for which the “intracellular Ca2+ response” value was “responded” in assay [2] (1 μM) and “Ca^2+ transient was observed” in assay [5] (10 μM). Besides, the “intracellular Ca2+ response (FURA-2 F340/F380)” value in assay [3] was “no effect”. Also, in assay [6], the ligand preference result is recorded as “preferentially recognize octanal”. The “relative Ca2+ response, octanal vs heptanal” value in assay [5] was “responded better to octanal than to heptanal”. For the same compound, in assay [5] (second application, even at 30 μM (desensitization)), the “Ca2+ response to a second application” value was “little or no effect”. For the same compound, the “dependence of the Ca2+ response on Gα15,16” value in assay [5] (with vs without Gα15,16) was “required the presence of Gα15,16”.
